Laboratory results reported in the NIST ThermoML archive (doi:10.1021/acs.jced.7b00092).
± gives the expanded uncertainty stated by the source.

Conditions: Liquid, Frequency=8 MHz, Pulse-echo method

C[Si](C)(C)O[Si](C)(C)O[Si](C)(C)C [octamethyltrisiloxane]
Conditions | speed of sound [m/s]
299.61 K, 10196 kPa | 986.47 ± 1.2
299.62 K, 101 kPa | 911.32 ± 1.2
299.63 K, 502 kPa | 914.41 ± 1.2
299.64 K, 984 kPa | 918.29 ± 1.2
299.64 K, 1480 kPa | 922.14 ± 1.2
299.65 K, 2012 kPa | 926.38 ± 1.2
299.66 K, 3441 kPa | 937.36 ± 1.2
299.68 K, 20155 kPa | 1050.3 ± 1.2
299.69 K, 5923 kPa | 955.8 ± 1.2
299.71 K, 30179 kPa | 1107.3 ± 1.2
349.58 K, 3704 kPa | 781 ± 1.2
349.59 K, 2066 kPa | 764.64 ± 1.2
349.59 K, 10127 kPa | 839.26 ± 1.2
349.6 K, 1556 kPa | 759.34 ± 1.3
349.61 K, 6067 kPa | 803.25 ± 1.2
349.61 K, 20075 kPa | 915.62 ± 1.1
349.64 K, 29800 kPa | 980.01 ± 1.1
349.65 K, 1075 kPa | 754.2 ± 1.3
349.69 K, 558 kPa | 748.58 ± 1.3
349.91 K, 111 kPa | 742.97 ± 1.3
399.42 K, 29701 kPa | 873.39 ± 1.1
399.95 K, 2018 kPa | 610.77 ± 1.5
399.96 K, 508 kPa | 588.68 ± 1.4
399.96 K, 993 kPa | 595.83 ± 1.6
399.96 K, 1439 kPa | 602.33 ± 1.6
399.96 K, 3510 kPa | 630.8 ± 1.6
400.02 K, 9928 kPa | 704.99 ± 1.2
400.15 K, 19875 kPa | 796.17 ± 1.1
449.44 K, 23518 kPa | 734.5 ± 1.1
449.96 K, 1045 kPa | 448.89 ± 2.2
449.98 K, 1523 kPa | 458.69 ± 2.1
449.99 K, 492 kPa | 436.7 ± 2.3
450.01 K, 1994 kPa | 468.09 ± 2
450.05 K, 3497 kPa | 495.73 ± 1.8
450.09 K, 6009 kPa | 536.6 ± 1.6
450.14 K, 9983 kPa | 591.45 ± 1.4
450.22 K, 20246 kPa | 701.94 ± 1.2
498.94 K, 3487 kPa | 373.05 ± 2.5
498.96 K, 1989 kPa | 328.83 ± 3
499 K, 5834 kPa | 424.21 ± 1.9
499.02 K, 1521 kPa | 313.47 ± 3.4
499.02 K, 10178 kPa | 498.23 ± 1.5
499.04 K, 1000 kPa | 292.6 ± 3.8
499.05 K, 16859 kPa | 585.07 ± 1.4
549.67 K, 15312 kPa | 492.6 ± 1.5
549.74 K, 6653 kPa | 340.31 ± 2.3
549.79 K, 4484 kPa | 279.71 ± 2.9
549.8 K, 10050 kPa | 411.61 ± 1.9
549.84 K, 12528 kPa | 452.26 ± 1.6

C[Si](C)(C)O[Si](C)(C)O[Si](C)(C)O[Si](C)(C)C [decamethyltetrasiloxane]
Conditions | speed of sound [m/s]
217.81 K, 2 kPa | 1232 ± 1.1
217.81 K, 1324 kPa | 1238.8 ± 1.1
217.85 K, 9419 kPa | 1278.4 ± 1.2
217.9 K, 19699 kPa | 1325.2 ± 1.2
217.99 K, 40255 kPa | 1409.2 ± 1.3
218.01 K, 60115 kPa | 1481.3 ± 1.3
218.09 K, 79712 kPa | 1545.9 ± 1.4
218.16 K, 98572 kPa | 1603 ± 1.5
218.24 K, 118233 kPa | 1658.4 ± 1.6
249.42 K, 119047 kPa | 1575.5 ± 1.5
249.53 K, 98950 kPa | 1515.2 ± 1.4
249.65 K, 80370 kPa | 1454.9 ± 1.3
249.74 K, 59554 kPa | 1380.8 ± 1.2
249.8 K, 19343 kPa | 1208.7 ± 1.1
249.8 K, 39384 kPa | 1300.3 ± 1.2
249.84 K, 1077 kPa | 1110.1 ± 1
249.84 K, 9240 kPa | 1156.2 ± 1.1
299.9 K, 16 kPa | 925.67 ± 0.86
299.92 K, 1080 kPa | 933.63 ± 0.87
299.94 K, 121 kPa | 926.31 ± 0.87
299.96 K, 958 kPa | 932.76 ± 0.88
299.98 K, 9659 kPa | 994.25 ± 0.92
300 K, 19671 kPa | 1056.3 ± 0.98
300 K, 60024 kPa | 1252.4 ± 1.1
300 K, 80266 kPa | 1331.2 ± 1.2
300 K, 99198 kPa | 1397.7 ± 1.3
300.01 K, 40202 kPa | 1164.3 ± 1.1
300.04 K, 119626 kPa | 1463.1 ± 1.4
349.87 K, 59744 kPa | 1145.5 ± 1.1
349.89 K, 9447 kPa | 851.51 ± 0.8
349.89 K, 99170 kPa | 1302.5 ± 1.2
349.89 K, 119296 kPa | 1370.8 ± 1.4
349.9 K, 19447 kPa | 925.37 ± 0.87
349.92 K, 80462 kPa | 1232.5 ± 1.1
349.93 K, 1369 kPa | 780.56 ± 0.74
349.93 K, 40092 kPa | 1049.2 ± 0.96
399.55 K, 120290 kPa | 1300.1 ± 1.3
399.6 K, 1077 kPa | 636.31 ± 0.64
399.6 K, 9691 kPa | 731.33 ± 0.7
399.67 K, 1234 kPa | 638.18 ± 0.64
399.67 K, 20055 kPa | 820.52 ± 0.8
399.69 K, 38533 kPa | 945.04 ± 0.88
399.69 K, 60934 kPa | 1064.3 ± 0.97
399.7 K, 81120 kPa | 1154.3 ± 1.1
399.7 K, 99014 kPa | 1224.6 ± 1.1
449.89 K, 9702 kPa | 623.33 ± 0.62
449.92 K, 19667 kPa | 723.35 ± 0.73
449.96 K, 40506 kPa | 876.94 ± 0.83
449.99 K, 59941 kPa | 986.94 ± 0.91
450.01 K, 80184 kPa | 1082.5 ± 1
450.03 K, 99670 kPa | 1162.7 ± 1.1
450.04 K, 119488 kPa | 1235.4 ± 1.3
450.05 K, 1060 kPa | 502.02 ± 0.54
499.61 K, 9979 kPa | 534.61 ± 0.56
499.67 K, 20291 kPa | 650.54 ± 0.68
499.69 K, 40057 kPa | 807.98 ± 0.78
499.72 K, 4164 kPa | 442.17 ± 0.49
499.72 K, 60022 kPa | 927.39 ± 0.86
499.75 K, 5168 kPa | 460.32 ± 0.51
499.75 K, 80169 kPa | 1026.5 ± 0.95
499.76 K, 1001 kPa | 371.6 ± 0.46
499.78 K, 3058 kPa | 420.07 ± 0.48
499.8 K, 99589 kPa | 1109 ± 1
499.82 K, 1926 kPa | 395 ± 0.47
499.89 K, 119374 kPa | 1183.6 ± 1.2
